We go through 5 molecules from patent publication US20240382484A1, “COMPOSITION FOR TREATING, PREVENTING, OR AMELIORATING MELANOMA AND METHOD THEREOF” (Thomas Jefferson University, priority 2021, published 2024).

The test system of experiment [1] is human NRAS mutant melanoma cell lines. Put plainly: 72 hours drug combination, cell density by IncuCyte, synergy by Combenefit with Loewe method. The note with it: for synergy with MEKi (trametinib): WM1361A and WM1366 cells, 72 hours. It is filed as cell-based.
Method: FIG. 10A-10B: Cas9 expressed clone WM1361A-iCas9 #1 (FIG. 10A), and WM1366-iCas9 #11 (FIG. 10B) cells were treated for 72 hours as indicated with GSK2334470 and trametinib and analyzed for cell density by IncuCyte. Synergy graphs were generated utilizing Combenefit Software with Loewe method. Data are represented as the mean from three biological independent experiments.
FIG. 11A: WM1361A, WM1366, SK-MEL-30 and SK-MEL-173 cells were treated for 72 hours as indicated with GSK2334470 and PD0325901 and analyzed for cell density by IncuCyte. Synergy graphs were generated utilizing Combenefit Software with Loewe method. Data are represented as the mean from three biological independent experiments. FIG. 11B: WM1361A, WM1366, SK-MEL-30 or SK-MEL-173 cells were treated with GSK2334470 (PDPK1i) and PD0325901 (PD901) alone or in combination (Comb) at the indicated concentrations for 7 days. Cell growth was monitored by IncuCyte every 2 hours. Data are represented as the mean±SEM of three biological independent experiments. p values were calculated with an unpaired two-tailed t test. n.s., not significant.
FIG. 16A: WM1361A and WM1366 cells were treated for 72 hours with indicated inhibitors and analyzed for cell density by IncuCyte. Synergy graphs were generated utilizing Combenefit Software with Loewe method. Data are represented as the mean from three biological independent experiments.
Human WM1361A and WM1366 melanoma cell lines were cultured in MCDB153 (Sigma) with 2% FBS, 20% Leibowitz L-15 medium, and 5 μg/mL insulin (WM medium). Human SK-MEL-30 and SK-MEL-173 melanoma cell lines were cultured in RPMI-1640 with 10% FBS. […] All cells were cultured at 37° C. in a humidified atmosphere containing 5% CO2. […] Cell lines were STR analyzed, confirmed for NRAS/Nras mutation, and tested to be mycoplasma-free during experiments. For cell proliferation and drug response, cells were monitored by IncuCyte® (Essen Bioscience, Ann Arbor, MI) every 2 hours.
In another experiment the test system is NRAS mutant melanoma. The note with it: Phase III, NRAS mutant melanoma patients; cited from earlier work.
Experiment [2] has as its system mouse Nras mutant melanoma cell lines. Put plainly: 72 hours drug combination, cell density by IncuCyte, synergy by Combenefit with Loewe method. The experiment is classed as cell-based. The note with it: two mouse lines (1007 and 1014), 3-day treatment. The protocol:
FIG. 2A: NRAS mutant melanoma cell line WM1361A, WM1366, SK-MEL-30, SK-MEL-173, 1007 and 1014 were treated for 72 hours as indicated with GSK2334470 and trametinib and analyzed for cell density by IncuCyte. Synergy graphs were generated utilizing Combenefit Software with Loewe method. Data are represented as the mean from three biological independent experiments. FIG. 2B: WM1361A, WM1366, SK-MEL-30 or SK-MEL-173 cells were treated with GSK2334470 (PDPK1i) and trametinib (tram) alone or in combination (comb) at the indicated concentrations for 7 days. Cell growth was monitored by IncuCyte every 2 hours. Media were replaced twice with drugs during culture. Data are represented as the mean±SEM of three biological independent experiments. p values were calculated with an unpaired two-tailed t test. n.s., not significant.
To further analyze synergistic effects, the growth response of a panel of several NRAS mutant cells to titrated PDPK1i (GSK2334470) and MEKi (trametinib) combinations was assessed.
Human WM1361A and WM1366 melanoma cell lines were cultured in MCDB153 (Sigma) with 2% FBS, 20% Leibowitz L-15 medium, and 5 μg/mL insulin (WM medium). […] Cell lines were STR analyzed, confirmed for NRAS/Nras mutation, and tested to be mycoplasma-free during experiments. For cell proliferation and drug response, cells were monitored by IncuCyte® (Essen Bioscience, Ann Arbor, MI) every 2 hours.

In the next experiment the test system is WM1361A-iCas9 #1 cells. Put plainly: Growth inhibition by single agents or combined inhibitors for 3 days, Bliss independence model. The experiment is classed as cell-based, human. On the procedure: FIGS. 1A-1H: CRISPR screen identifies PDPK1, in accordance with some embodiments. FIG. 1A: Workflow of the CRISPR-Cas9 screen for genes that are essential for cell survival or act as regulators of trametinib (MEKi) sensitivity and resistance in NRAS mutant melanoma WM1361A-iCas9 #1 cells. FIGS. 1B-1D: WM1361A-iCas9 #1 cells were transduced with the Guide-it CRISPR Genome-Wide sgRNA Library. After 3 days, mCherry positive cells were determined by FACS analysis (FIG. 1). On the 24th day post infection, the cells were treated with 20 nM trametinib for further 14 days (FIG. 1C) or 0.01-0.02 nM trametinib for further 28 days (FIG. 1D). The top enriched or depleted sgRNAs targeted genes are shown. FIG. 1E, The top depleted sgRNAs targeted genes before trametinib treatment. FIG. 1F: WM1361A-iCas9 #1 cells were treated with single agents or combined inhibitors for 3 days. The growth inhibition was shown as observed inhibition (left), or was calculated as Bliss independence model (middle). The synergistic or antagonist effects (right) were calculated as Observed inhibition %−Expected inhibition %. […]
The present study further analyzed druggable essential genes with high STARS scores (>2.14 of NRAS) in WM1361A-iCas9 cells which were also identified as therapeutic targets with high priority scores (>30) in NRAS mutant melanoma SK-MEL-2 cells in a published database. […]

Take `Cc1nc(-c2cn3c(n2)-c2ccc(-c4cnn(C(C)(C)C(N)=O)c4)cc2OCC3)n(C(C)C)n1` [GDC-0032]: in experiment [1], the “synergy with MEKi (trametinib)” value is “synergy with trametinib comparable to those with PDPK1i”. Take `COc1ccc(-c2ccc3c(N4CCOC[C@@H]4C)nc(N4CCOC[C@@H]4C)nc3n2)cc1CO` [AZD8055]: the “synergy with MEKi (trametinib)” value in experiment [1] was “reduced synergy and even antagonistic effects”. `Cl.Cl.NC1(c2ccc(-c3nc4ccn5c(=O)[nH]nc5c4cc3-c3ccccc3)cc2)CCC1` [MK-2206 2HCl]: in experiment [1], the “synergy with MEKi (trametinib)” value is “reduced synergy and even antagonistic effects”. Turning to `Cn1cnc2c(F)c(Nc3ccc(Br)cc3F)c(C(=O)NOCCO)cc21` [Binimetinib, 5-((4-bromo-2-fluorophenyl)amino)-4-fluoro-N-(2-hydroxyethoxy)-1-methyl-1H-benzo[d]imidazole-6-carboxamide], the “progression-free survival over standard chemotherapy (dacarbazine)” value with NRAS mutant melanoma was “modest advantage”. Take `CNc1nc(-c2ccc3c(N)n[nH]c3c2)cc(N2C[C@@H](C(=O)NC3CCCCC3)CC[C@H]2C)n1` [GSK2334470, (3S,6R)-1-[6-(3-Amino-1H-indazol-6-yl)-2-(methylamino)-4-pyrimidinyl]-N-cyclohexyl-6-methyl-3-piperidinecarboxamide]: the “synergistic inhibition of cell viability, PDPK1i (GSK2334470) and MEKi (trametinib) combinations” value in experiment [2] is recorded as “Synergistic inhibition”; in experiment [1] (two Cas9-expressed cell lines and four parental human lines (WM1361A, WM1366, SK-MEL-30, SK-MEL-173), 3-day treatment), “Synergistic inhibition”. Moreover, the “synergy with MEKi (trametinib) on growth inhibition” value in the experiment with WM1361A-iCas9 #1 cells was “synergistic”.
